The record followed here is US9428469B2, “Antiviral compounds” (priority 2013, dated 2016).

Counter-ions that a name gives are not always drawn.

Broadly, the EC50 is the concentration giving half of the maximal effect.

One assay has as its system HCVpp GT-1b. In words: microbe, parasite or virus in culture. The format is cell-based, Hepatitis C virus (GT1b Con1 strain). As to conditions: Hepatitis C virus, GT1B, 72 h, read-out: HCVpp GT-1b (EC50, μM).
The test system of another assay is VSVpp. As to the kind of experiment: microbe, parasite or virus in culture. The format is cell-based. As to conditions: Vesicular stomatitis virus, 72 h, read-out: VSVpp (EC50, μM).

Regarding `FC(F)(F)c1ccc(CNc2nc(Nc3cc(Cl)c(Br)c(C(F)(F)F)c3)n[nH]2)cc1` [Compound 1, N3-(4-bromo-3-chloro-5-(trifluoromethyl)phenyl)-N5-(4-(trifluoromethyl)benzyl)-1H-1,2,4-triazole-3,5-diamine], the results for the EC50 with HCVpp GT-1b and in the assay on VSVpp were 1.35 µM and 13.7 µM, respectively.

With `Clc1cc(Cl)cc(Nc2n[nH]c(NCc3ccco3)n2)c1` [Compound 2, N3-(3,5-dichlorophenyl)-N5-(furan-2-ylmethyl)-1H-1,2,4-triazole-3,5-diamine], the EC50 turned out to be 2.58 µM with HCVpp GT-1b and 11.9 µM in the assay on VSVpp.

For `Cc1ccc(CNc2nc(Nc3cc(Cl)cc(Cl)c3)n[nH]2)o1` [Compound 3, N3-(3,5-dichlorophenyl)-N5-((5-methylfuran-2-yl)methyl)-1H-1,2,4-triazole-3,5-diamine], the EC50 was found to be 3.27 µM in the assay with HCVpp GT-1b and 19.3 µM with VSVpp.

Regarding `FC(F)(F)c1ccc(Cl)cc1CNc1nc(Nc2cc(Cl)cc(Cl)c2)n[nH]1` [Compound 4, N5-(5-chloro-2-(trifluoromethyl)benzyl)-N3-(3,5-dichlorophenyl)-1H-1,2,4-triazole-3,5-diamine], the EC50 stood at 4.66 µM in the assay on HCVpp GT-1b and 13.2 µM in the assay on VSVpp.

For the molecule `Clc1ccc(CNc2nc(Nc3cc(Cl)cc(Cl)c3)n[nH]2)nc1` [Compound 5, N5-((5-chloropyridin-2-yl)methyl)-N3-(3,5-dichlorophenyl)-1H-1,2,4-triazole-3,5-diamine], the concentration for a half-maximal effect (EC50) with HCVpp GT-1b was 1.57 µM; in the assay with VSVpp it was 33.6 µM.

As for `CC(C)(C)OC(=O)Nc1ccc(CNc2nc(Nc3cc(Cl)cc(Cl)c3)n[nH]2)cn1` [Compound 6, Tert-butyl 5-((3-(3,5-dichlorophenylamino)-1H-1,2,4-triazol-5-ylamino)methyl)pyridin-2-ylcarbamate], the EC50 with HCVpp GT-1b worked out at 7.81 µM; with VSVpp, 14.5 µM.

Consider `CC(C)(C)OC(=O)c1ccc(CNc2nc(Nc3cc(Cl)cc(Cl)c3)n[nH]2)cc1` [Compound 7, tert-butyl 4-((3-(3,5-dichlorophenylamino)-1H-1,2,4-triazol-5-ylamino)methyl)benzoate], for which the EC50 in the assay on HCVpp GT-1b is 0.414 µM; in the assay on VSVpp, 33.3 µM.

Take `CC(C)(C)OC(=O)c1ccccc1CNc1nc(Nc2cc(Cl)cc(Cl)c2)n[nH]1` [Compound 8, tert-butyl 2-((3-(3,5-dichlorophenylamino)-1H-1,2,4-triazol-5-ylamino)methyl)benzoate]: the EC50 with HCVpp GT-1b worked out at 9.99 µM; in the assay on VSVpp, 22 µM.

On to `Clc1cc(Cl)cc(Nc2n[nH]c(NCc3ccccc3)n2)c1` [Compound 9, N5-benzyl-N3-(3,5-dichlorophenyl)-1H-1,2,4-triazole-3,5-diamine], for which the 50% effective concentration (EC50) in the assay on HCVpp GT-1b worked out at 1.72 µM; in the assay with VSVpp, 22.8 µM.

`Nc1ccc(CNc2nc(Nc3cc(Cl)cc(Cl)c3)n[nH]2)cn1` [Compound 10, N5-((6-aminopyridin-3-yl)methyl)-N3-(3,5-dichlorophenyl)-1H-1,2,4-triazole-3,5-diamine]: the 50% effective concentration (EC50) was 58.3 µM in the assay with HCVpp GT-1b and 100 µM with VSVpp.

For `Cn1cc(CNc2nc(Nc3cc(Cl)cc(Cl)c3)n[nH]2)cn1` [Compound 11, N3-(3,5-dichlorophenyl)-N5-((1-methyl-1H-pyrazol-4-yl)methyl)-1H-1,2,4-triazole-3,5-diamine], the figures for the concentration for a half-maximal effect (EC50) with HCVpp GT-1b and with VSVpp were 23.9 µM and 25.7 µM, respectively.

On to `O=C(O)c1ccc(CNc2nc(Nc3cc(Cl)cc(Cl)c3)n[nH]2)cc1` [Compound 12, 4-((3-(3,5-dichlorophenylamino)-1H-1,2,4-triazol-5-ylamino)methyl)benzoic acid; trifluoroacetic acid salt], for which the EC50 with HCVpp GT-1b worked out at 19.5 µM; with VSVpp, 100 µM.

On to `O=C(O)c1cccc(CNc2nc(Nc3cc(Cl)cc(Cl)c3)n[nH]2)c1` [Compound 13, 3-((3-(3,5-dichlorophenylamino)-1H-1,2,4-triazol-5-ylamino)methyl)benzoic acid; trifluoroacetic acid salt], for which the EC50 is 37.5 µM with HCVpp GT-1b and 78.1 µM in the assay on VSVpp.

Turning to `O=C(O)c1ccccc1CNc1nc(Nc2cc(Cl)cc(Cl)c2)n[nH]1` [Compound 14, 2-((3-(3,5-dichlorophenylamino)-1H-1,2,4-triazol-5-ylamino)methyl)benzoic acid; trifluoroacetic acid salt], the values for the EC50 with HCVpp GT-1b and in the assay with VSVpp were 96 µM and 100 µM, respectively.

Consider `CS(=O)(=O)c1ccc(CNc2nc(Nc3cc(Cl)cc(Cl)c3)n[nH]2)cc1` [Compound 15, N3-(3,5-dichlorophenyl)-N5-(4-(methylsulfonyl)benzyl)-1H-1,2,4-triazole-3,5-diamine], for which the EC50 in the assay with HCVpp GT-1b and with VSVpp was 10 µM each time.

As for `N#Cc1ccc(CNc2nc(Nc3cc(Cl)cc(Cl)c3)n[nH]2)cc1` [Compound 16, 4-((3-(3,5-dichlorophenylamino)-1H-1,2,4-triazol-5-ylamino)methyl)benzonitrile], the EC50 in the assay on HCVpp GT-1b was 3.34 µM; in the assay on VSVpp, 10 µM.

For `CN(C)S(=O)(=O)c1ccc(CNc2nc(Nc3cc(Cl)cc(Cl)c3)n[nH]2)cc1` [Compound 17, 4-((3-(3,5-dichlorophenylamino)-1H-1,2,4-triazol-5-ylamino)methyl)-N,N-dimethylbenzenesulfonamide], the EC50 in the assay with HCVpp GT-1b and in the assay on VSVpp was 10 µM throughout.

Consider `FC(F)(F)c1ccc(CNc2nc(Nc3cc(Cl)cc(Cl)c3)n[nH]2)cc1Cl` [Compound 19, N5-(3-chloro-4-(trifluoromethyl)benzyl)-N3-(3,5-dichlorophenyl)-1H-1,2,4-triazole-3,5-diamine], for which the results for the EC50 in the assay with HCVpp GT-1b and in the assay on VSVpp were 4.83 µM and 10 µM, respectively.

Turning to `O=S(=O)(c1ccc(CNc2nc(Nc3cc(Cl)cc(Cl)c3)n[nH]2)cc1)N1CCCC1` [Compound 20, N3-(3,5-dichlorophenyl)-N5-(4-(pyrrolidin-1-ylsulfonyl)benzyl)-1H-1,2,4-triazole-3,5-diamine], the EC50 in the assay with HCVpp GT-1b and in the assay with VSVpp was 10 µM throughout.

On to `O=S(=O)(c1ccc(CNc2nc(Nc3cc(Cl)cc(Cl)c3)n[nH]2)cc1)N1CCOCC1` [Compound 21, N3-(3,5-dichlorophenyl)-N5-(4-(morpholinosulfonyl)benzyl)-1H-1,2,4-triazole-3,5-diamine], for which the EC50 with HCVpp GT-1b and with VSVpp was 10 µM each time.

Consider `N#Cc1c(Cl)cc(Nc2n[nH]c(NCc3ccc(C(F)(F)F)cc3)n2)cc1Cl` [Compound 22, 2,6-dichloro-4-(5-(4-(trifluoromethyl)benzylamino)-1H-1,2,4-triazol-3-ylamino)benzonitrile], for which the half-maximal effective concentration (EC50) is 0.224 µM in the assay on HCVpp GT-1b and 5.3 µM in the assay with VSVpp.

`CC(C)(C)OC(=O)c1ccc(CNc2nc(Nc3cc(Cl)c(C#N)c(Cl)c3)n[nH]2)cc1` [Compound 23, tert-butyl 4-((3-(3,5-dichloro-4-cyanophenylamino)-1H-1,2,4-triazol-5-ylamino)methyl)benzoate]: the EC50 in the assay on HCVpp GT-1b came out at 0.029 µM; in the assay on VSVpp, 10 µM.

On to `CC(C)S(=O)(=O)c1ccc(-c2c(Cl)cc(Nc3n[nH]c(NCc4ccc(C(=O)OC(C)(C)C)cc4)n3)cc2C(F)(F)F)cc1` [Compound 24, tert-butyl 4-((3-(2-chloro-4′-(isopropylsulfonyl)-6-(trifluoromethyl)biphenyl-4-ylamino)-1H-1,2,4-triazol-5-ylamino)methyl)benzoate], for which the concentration giving a half-maximal response (EC50) with HCVpp GT-1b was 0.014 µM; with VSVpp, 6.2 µM.

Turning to `FC(F)(F)c1ccc(CNc2nc(Nc3cc(Cl)cc(Cl)c3)n[nH]2)cc1` [Compound 25, N*3*-(3,5-Dichloro-phenyl)-N*5*-(4-trifluoromethyl-benzyl)-1H-[1,2,4]triazole-3,5-diamine], the concentration for a half-maximal effect (EC50) was 0.046 µM with HCVpp GT-1b and 29.1 µM with VSVpp.

Consider `FC(F)(F)c1cccc(CNc2nc(Nc3cc(Cl)cc(Cl)c3)n[nH]2)c1` [Compound 26, N*3*-(3,5-Dichloro-phenyl)-N*5*-(3-trifluoromethyl-benzyl)-1H-[1,2,4]triazole-3,5-diamine], for which the figures for the 50% effective concentration (EC50) with HCVpp GT-1b and with VSVpp were 0.709 µM and 30.3 µM, respectively.

Take `CS(=O)(=O)N1CCC(Nc2nc(Nc3cc(Cl)cc(Cl)c3)n[nH]2)CC1` [Compound 27, N*3*-(3,5-Dichloro-phenyl)-N*5*-(1-methanesulfonyl-piperidin-4-yl)-1H-[1,2,4]triazole-3,5-diamine]: the values for the EC50 in the assay on HCVpp GT-1b and in the assay with VSVpp were 59.6 µM and 42.4 µM, respectively.

In the case of `CC(C)(C)OC(=O)N1CCC(Nc2nc(Nc3cc(Cl)cc(Cl)c3)n[nH]2)CC1` [Compound 28, 4-[5-(3,5-Dichloro-phenylamino)-2H-[1,2,4]triazol-3-ylamino]-piperidine-1-carboxylic acid tert-butyl ester], the concentration for a half-maximal effect (EC50) is 6.57 µM in the assay on HCVpp GT-1b and 11.1 µM in the assay with VSVpp.

With `Clc1cc(Cl)cc(Nc2n[nH]c(NC3CCNCC3)n2)c1` [Compound 29, N*3*-(3,5-Dichloro-phenyl)-N*5*-piperidin-4-yl-1H-[1,2,4]triazole-3,5-diamine; compound with trifluoro-acetic acid], the EC50 with HCVpp GT-1b and in the assay on VSVpp was 10 µM each time.

For the molecule `CC(=O)N1CCC(Nc2nc(Nc3cc(Cl)cc(Cl)c3)n[nH]2)CC1` [Compound 30, 1-{4-[5-(3,5-Dichloro-phenylamino)-2H-[1,2,4]triazol-3-ylamino]-piperidin-1-yl}-ethanone], the EC50 was found to be 95.8 µM in the assay on HCVpp GT-1b and 49.6 µM with VSVpp.

On to `Clc1cc(Cl)cc(Nc2n[nH]c(NCc3cncnc3)n2)c1` [Compound 31, N*3*-(3,5-Dichloro-phenyl)-N*5*-pyrimidin-5-ylmethyl-1H-[1,2,4]triazole-3,5-diamine], for which the values for the half-maximal effective concentration (EC50) in the assay with HCVpp GT-1b and in the assay on VSVpp were 44.3 µM and 100 µM, respectively.
